Measured values from patent US5856325A, “Benzotriazines, pharmaceutical compositions, and methods of using same” (Boehringer Mannheim GmbH, priority 1992, dated 1999).

Experiments:
[1] = system: collagen-induced arachidonic acid (AA) liberation from human thrombocytes; experiment: Inhibition of the collagen-induced arachidonic acid (AA) liberation from human thrombocytes (3H-AA); format: cell-based
Description: b) Inhibition of the collagen-induced arachidonic acid
(AA) liberation from human thrombocytes
As further indicator of a PLA2 inhibition, there is valid an inhibition of the AA liberation from thrombocytes. For this purpose, the thrombocytes are equilibrated with ^3 H-AA. This added radioactive arachidonic acid incorporates into membrane phospholipids. Subsequently, the thrombocytary PLA2 is activated via the collagen receptor and ^3 H-AA thus again liberated from the membrane phospholipids into the medium where it can be measured.

[2] = target: T1, human recombinant type II PLA2 (synovial PLA2) (Homo sapiens, UniProt P14555); experiment: Inhibition of the human recombinant type II PLA2 (synovial PLA2), in vitro; format: biochemical
T1 sequence (P14555 21-144): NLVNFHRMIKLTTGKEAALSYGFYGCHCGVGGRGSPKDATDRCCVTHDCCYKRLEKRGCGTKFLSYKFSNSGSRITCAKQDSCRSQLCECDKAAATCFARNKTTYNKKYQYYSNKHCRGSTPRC
Source text: a) Inhibition of the human recombinant type II PLA2) (=synovial PLA2)
As typical respresentative of A PLA2, there was selected for the testing the synovial PLA2 (dissertation of Rainer Muller, 1993; University of Regensburg).
As representative of the compounds I or Ia, respectively, there was investigated in more detail the compound from Example 1. In the following Table, there is given dosage-dependent the percentage in vitro inhibition of PLA2.

inhibition at 1 µg/mL ([2]; 1 μg/ml): 43% | inhibition at 10 µg/mL ([2]; 10 μg/ml): 60% | inhibition at 100 µg/mL ([2]; 100 μg/ml): 99%
Structure (SMILES): Nc1nc2ccccc2[n+]([O-])n1 [Example 1, 1,2,4-Benzotriazine-3-amine 1-oxide]
inhibition at 10 µg/mL ([1]; 10 μg/ml, collagen-induced, human thrombocytes): 29% | inhibition at 100 µg/mL ([1]; 100 μg/ml, collagen-induced, human thrombocytes): 91% | inhibition of the collagen-induced AA liberation, maximum ([1]; dosage-dependent): up to 91%
